Read-outs that look alike come from different tables or passages of the source.
Columns and labels:
[1] = tested on: IFNγ-induced NO production; assay: IFNγ-induced NO production in RAW264.7 macrophages (Griess reagent); format: cell-based; details: Mus musculus
Method: (§1) Inhibition of IFNγ-induced NO production by AIMs is Nrf2-dependent (Dinkova-Kostova, 2005). […] Nitrite (NO2^−) levels in the media were measured as a surrogate for nitric oxide using the Griess reagent assay. Cell viability was assessed using the WST-1 assay. […] 63170, 63171, 63179, and 63189 are compounds of the formulas: […]

[2] = tested on: Nrf2 protein expression in SK-N-SH cells; assay: in-cell western NQO1 assay, SK-N-SH cells; format: cell-based; details: Homo sapiens, 72 h, 3 days incubation, read-out: EC50 for induction of Nrf2 protein expression in SK-N-SH cells
Method: HMOX1 protein was not detected in untreated or RTA 408-treated SH-SY5Y cells. […] The same amount of 63170 (54.6 nM) was required.
The EC50 was measured using an in-cell western NQO1 assay where the cells were incubated with the compound under evaluation for 3 days. After incubation with the compound of interest, the cells were reacted with mouse NQO1 antibody and then the next day the cells were reacted with IRDye-800CW-anti-mouse IgG antibody. The target signals were visualized and then analyzed.

glutathione levels = assay: induction of glutathione levels, RAW264.7 mouse model; format: cell-based
From the text: Glutathione and NADPH are critical factors required for the maintenance of cellular redox capacity. […] Data shown are representative of two independent experiments.

[3] = tested on: TNFα-induced NF-κB activation; assay: TNFα-induced NF-κB luciferase reporter, HeLa/NF-κB-Luc cells; format: cell-based; details: Homo sapiens, 1 h pretreatment, TNFα 10 ng/mL 5 h
From the text: NF-κB is a transcription factor that plays a central role in the regulation of many immune and inflammatory responses.

TGA-MS of solid forms = format: physicochemical; details: for hygroscopicity: indicated by TGA-MS; for mass loss in TGA-MS between 25 and 200° C.: traces of H2O
Method: The TGA was run with TA instruments, data were collected on a thermal balance (Q-5000, TA Instruments, New Castle, Del.) equipped with a data analyzer (Universal Analysis 2000, version 4.5A, TA Instruments, New Castle, Del.). During experiments, the furnace was purged with nitrogen at 60 mL/minute, while the balance chamber was purged at 40 mL/minute. Temperature of the TGA furnace was calibrated using curie points of […] and nickel. Sample size ranged from 2 to 20 mg, and a heating rate of 10° C./minute was used.
For TGA-MS, the thermogravimetric analysis part was the same as above. The mass of evolved gas was analyzed with […] GSD 301 T3 ThermoStar ([…] Vacuum, Asslar, Germany). The instrument was operated and data evaluated with Software Quadstar 32-bit (V7.01, Inficon, LI-9496 Balzers, Liechtenstein).

RAW264.7 cells = assay: WST-1 cell viability, RAW264.7; format: cell-based; details: Mus musculus
Method: as §1

[4] = 2 h pre-treatment, 20 ng/mL IFNγ 24 h, read-out: IC50, suppression of IFNγ-induced NO production

Row | Structure (SMILES) | IC50 [1, 4] [nM] | EC50 [2] [nM] | EC50 (glutathione levels) [nM] | other results
1 | CCC(=O)N[C@]12CCC(C)(C)C[C@H]1[C@H]1C(=O)C=C3[C@@]4(C)C=C(C#N)C(=O)C(C)(C)[C@@H]4CC[C@@]3(C)[C@]1(C)CC2 [compound 63189] | 7 ± 2 | 102 | 16 | IC50 [3]: 854 nM
2 | CC1(C)CC[C@]2(NC(=O)C(C)(F)F)CC[C@]3(C)[C@H](C(=O)C=C4[C@@]5(C)C=C(C#N)C(=O)C(C)(C)[C@@H]5CC[C@]43C)[C@@H]2C1 [Form B] | – | – | – | hygroscopicity (TGA-MS of solid forms): very slightly hygroscopic; mass loss in TGA-MS between 25 and 200° C. (TGA-MS of solid forms): ~0.2 wt.-%
3 | CC1(C)CC[C@]2(NC(=O)C(F)(F)F)CC[C@]3(C)[C@H](C(=O)C=C4[C@@]5(C)C=C(C#N)C(=O)C(C)(C)[C@@H]5CC[C@]43C)[C@@H]2C1 [compound 63171] | 6.9 ± 0.6 | 122 | 23.2 | –
4 | CC1(C)CC[C@]2(CO)CC[C@]3(C)[C@H](C(=O)C=C4[C@@]5(C)C=C(C#N)C(=O)C(C)(C)[C@@H]5CC[C@]43C)[C@@H]2C1 [compound 63355, reference compound] | – | – | – | IC50 ([1]; Table 15, read-out: NO IC50 (nM), RAW264.7): 0.63 ± 0.06 nM; IC50 (RAW264.7 cells): 150 nM
5 | CC1(C)CC[C@]2(NC(=O)C(C)(F)F)CC[C@]3(C)[C@H](C(=O)C=C4[C@@]5(C)C=C(C#N)C(=O)C(C)(C)[C@@H]5CC[C@]43C)[C@@H]2C1 [Form A] | – | – | – | hygroscopicity (TGA-MS of solid forms): slightly hygroscopic; mass loss in TGA-MS between 25 and 200° C. (TGA-MS of solid forms): ~0.5 wt.-%
6 | CC1(C)CC[C@]2(NC(=O)CC(F)(F)F)CC[C@]3(C)[C@H](C(=O)C=C4[C@@]5(C)C=C(C#N)C(=O)C(C)(C)[C@@H]5CC[C@]43C)[C@@H]2C1 [compound 63179] | – | 126 | – | IC50 ([1]; unit given as nm, read-out: IC50, suppression of IFNγ-induced NO production): 11 ± 2 nM
7 | CC(=O)N[C@]12CCC(C)(C)C[C@H]1[C@H]1C(=O)C=C3[C@@]4(C)C=C(C#N)C(=O)C(C)(C)[C@@H]4CC[C@@]3(C)[C@]1(C)CC2 [compound 63170] | 8 ± 3 | 54.6 | 12.1 | IC50 [3]: 953 nM

Reference: patent publication US11873320B2 (REATA PHARMACEUTICALS HOLDINGS, LLC, priority 2013, dated 2024)
